In patent US12109207B2, “Methods of using 4(1H)-quinolone derivatives” (Academia Sinica, priority 2019, dated 2024):
Like-named read-outs stand apart in the source and are kept apart here.

Key:
[1] = test system: H1975 cells; test: Cell cytotoxicity assay (MTS), H1975; type: cell-based, human
Protocol: (§1) Cells were seeded into the wells of 96-well plates (2000 cells/well). After an overnight culture, the cells were treated with different concentrations of a compound for 72 h. The CellTiter 96 AQueous one-solution cell proliferation assay (MTS) reagent was used to determine cytotoxicity. After treatment with a compound, 20 μL of the MTS reagent was added to each well and the plates were incubated at 37° C. for 1-4 h. Next, the absorbance at 490 nm of the culture medium in each well was determined using a VersaMax microplate reader (Molecular Devices).

[2] = test system: CCRF-CEM; test: Cell cytotoxicity assay (MTS), CCRF-CEM; type: cell-based; conditions: Homo sapiens
Protocol: as §1

[3] = test system: KBtax; test: Cell cytotoxicity assay (MTS), KBtax; type: cell-based, human; conditions: for IC50: Homo sapiens, KBtax, P-gp overexpressing, paclitaxel-selected KB subline; for RF, resistance factor (IC50 in resistant cell line/IC50 in parent cell line): KBtax vs KB
Protocol: as §1

[4] = test system: KBvin; test: Cell cytotoxicity assay (MTS), KBvin; type: cell-based, human; conditions: for IC50: Homo sapiens, KBvin, P-gp overexpressing, vincristine-selected KB subline; for RF, resistance factor (IC50 in resistant cell line/IC50 in parent cell line): KBvin vs KB
Protocol: as §1

[5] = test system: CEM/VBL; test: Cell cytotoxicity assay (MTS), CEM/VBL; type: cell-based, human; conditions: for RF, resistance factor (IC50 in resistant cell line/IC50 in parent cell line): CEM/VBL vs CCRF-CEM; for IC50: Homo sapiens, CEM/VBL, P-gp overexpressing, vinblastine-selected CCRF-CEM subline
Protocol: as §1

[6] = test system: HDQP1; test: Cell cytotoxicity assay, HDQP1; type: cell-based; conditions: Homo sapiens, HDQ-P1; TNBC cell line HDQP1
Protocol: as §1

[7] = test system: HDQP1/TAX; test: Cell cytotoxicity assay, HDQP1/TAX; type: cell-based, human
Protocol: as §1

[8] = test system: KBtax xenograft tumors; test: KBtax xenograft tumor model; type: in vivo, BALB/c nude mice; conditions: after 21 days, i.p. three times a week; paclitaxel 15 mg/kg, RJ-LC-15-8 8 mg/kg
Protocol: Using the H1975, MDA-MB-231, and KBtax xenograft models, tumors were established after inoculation into the right flanks of 6-week-old BALB/c nude mice (NARLabs, Taipei, Taiwan). After establishment of the tumors, vehicle and test compounds, which had been dissolved in DMSO, were each injected intraperitoneally into a separate group of animals three times per week. The body mass of each animal and tumor volumes were measured before each drug delivery. Tumor volume was calculated as 0.5W^2L (with W being the width of the smaller diameter and L being the length of the larger diameter). The animal experiment was carried out in accordance with the procedures and guidelines of the Institutional Animal Care and Use Committee, Institute of Biomedical Sciences, Academia Sinica.

[9] = biological target: T1, Purified porcine tubulin (Sus scrofa, UniProt P02554); test: In vitro tubulin polymerization assay; type: biochemical; conditions: 5 μM, A340 every min for 1 h at 37° C.
T1 construct: purchased Cytoskeleton
T1 sequence (P02554 whole entry): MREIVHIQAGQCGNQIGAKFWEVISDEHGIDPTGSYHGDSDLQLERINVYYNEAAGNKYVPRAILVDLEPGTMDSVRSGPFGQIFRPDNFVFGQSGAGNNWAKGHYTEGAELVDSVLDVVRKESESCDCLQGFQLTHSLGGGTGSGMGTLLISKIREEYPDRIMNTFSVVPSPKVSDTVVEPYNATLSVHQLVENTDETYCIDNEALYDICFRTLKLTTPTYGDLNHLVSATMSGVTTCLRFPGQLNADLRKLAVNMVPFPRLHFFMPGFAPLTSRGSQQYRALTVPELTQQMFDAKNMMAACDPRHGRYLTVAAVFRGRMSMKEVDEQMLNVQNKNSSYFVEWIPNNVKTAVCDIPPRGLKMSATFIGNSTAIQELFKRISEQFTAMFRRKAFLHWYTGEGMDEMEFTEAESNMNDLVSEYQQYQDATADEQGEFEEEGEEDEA
T1 sequence (P02550 whole entry partner): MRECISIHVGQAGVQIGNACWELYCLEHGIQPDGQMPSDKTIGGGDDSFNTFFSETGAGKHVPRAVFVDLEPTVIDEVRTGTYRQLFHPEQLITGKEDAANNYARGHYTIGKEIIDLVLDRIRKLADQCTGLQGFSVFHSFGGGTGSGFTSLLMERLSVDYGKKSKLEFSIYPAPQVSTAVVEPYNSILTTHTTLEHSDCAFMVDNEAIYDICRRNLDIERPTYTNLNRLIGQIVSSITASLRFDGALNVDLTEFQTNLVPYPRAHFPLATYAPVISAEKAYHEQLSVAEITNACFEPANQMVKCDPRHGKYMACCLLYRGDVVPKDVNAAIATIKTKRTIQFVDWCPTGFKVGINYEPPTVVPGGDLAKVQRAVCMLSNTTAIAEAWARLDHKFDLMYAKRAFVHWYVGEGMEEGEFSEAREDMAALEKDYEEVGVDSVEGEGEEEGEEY
Protocol: Reagents from a Tubulin Polymerization Assay kit (Cytoskeleton) were used according to the manufacturer's instructions. Purified porcine tubulin (4 mg/mL; >99% purity) in G-PEM buffer (80 mM PIPES, 2 mM MgCl2, 0.5 mM EGTA, 1 mM GTP, 15% glycerol, pH 6.9) was mixed with each test compound in the wells of a 96-well plate. Then, the A340 value was recorded each minute for 1 h at 37° C. with the VersaMax microplate reader.

[10] = Body mass and serum biochemical markers, KBtax xenograft mice; type: in vivo, BALB/c nude mice; conditions: end of experiment; paclitaxel 15 mg/kg, RJ-LC-15-8 8 mg/kg; mean ± SEM
Protocol: The body mass of each animal and tumor volumes were measured before each drug delivery. Tumor volume was calculated as 0.5W^2L (with W being the width of the smaller diameter and L being the length of the larger diameter). The animal experiment was carried out in accordance with the procedures and guidelines of the Institutional Animal Care and Use Committee, Institute of Biomedical Sciences, Academia Sinica.

[11] = test system: MDA-MB-231; test: Cell cytotoxicity assay (MTS), MDA-MB-231; type: cell-based; conditions: Homo sapiens, MDA-MB-231, 72 h
Protocol: as §1

[12] = test system: human fibroblast (HFB) cells; test: Cell cytotoxicity assay (MTS), human fibroblast; type: cell-based; conditions: normal cell line HFB
Protocol: as §1

[13] = test system: KB; test: Cell cytotoxicity assay (MTS), KB; type: cell-based; conditions: Homo sapiens
Protocol: as §1

[14] = Homo sapiens, NCI-H1975, 72 h, H1975 cells, 72 h, MTS, read-out: IC50
[15] = Homo sapiens, NCI-H1975, Table 8, cell line not given, values match H1975, read-out: IC50
[16] = Homo sapiens, NCI-H1975, H1975 cells, cell-based SAR study, read-out: IC50

Compound `COC(=O)c1ccc2[nH]c(-c3ccccc3)cc(=O)c2c1` [RJ-LC-15-14, Methyl 4-oxo-2-phenyl-1,4-dihydroquinoline-6-carboxylate] has an IC50 [1, 14] of 207 nM and an IC50 [1, 15] of 207 ± 39 nM.
Work on `CCOC(=O)c1ccc2[nH]c(-c3cccc(Br)c3)cc(=O)c2c1` [RJ-LC-15-25, Ethyl 2-(3-bromophenyl)-4-oxo-1,4-dihydroquinoline-6-carboxylate] yielded an IC50 [1, 15] of 70 ± 19 nM.
For `CC(=O)O[C@H]1C(=O)[C@@]2(C)[C@H]([C@H](OC(=O)c3ccccc3)[C@]3(O)C[C@H](OC(=O)[C@H](O)[C@@H](NC(=O)c4ccccc4)c4ccccc4)C(C)=C1C3(C)C)[C@]1(OC(C)=O)CO[C@@H]1C[C@@H]2O` [Paclitaxel, paclitaxel], the IC50 [2] was 4 ± 0.02 nM, the IC50 [3] was 101 ± 5.52 nM and the “RF, resistance factor (IC50 in resistant cell line/IC50 in parent cell line)” value (“RF, resistance factor” for short) [3] was 10. For the same compound, the IC50 [4] was 708 ± 46.9 nM, the “RF, resistance factor” value [4] was 70 and the “RF, resistance factor” value [5] was 214. For the same compound, the IC50 [5] was 857 ± 9.89 nM, the IC50 [6] was 5 ± 3.05 nM and the “RF, resistance factor” value ([7]; HDQP1/TAX vs HDQP1) was 167. For the same compound, the IC50 ([7]; Homo sapiens, HDQ-P1, Paclitaxel-resistant subline) was 839 ± 142 nM, the average tumor size [8] was 868.7±121.4 mm^3 and the tubulin polymerization [9] was “enhanced polymerization”. For the same compound, the “AST(IU/L)” value [10] was 102.8 ± 18.9 IU/L, the “BUN” value [10] was 19 ± 1.3 mg/dL and the “Cre” value [10] was 0.16 ± 0.02 mg/dL.
`COC(=O)c1ccc2[nH]c(-c3cccc(F)c3)cc(=O)c2c1` [RJ-LC-15-22, Methyl 2-(3-fluorophenyl)-4-oxo-1,4-dihydroquinoline-6-carboxylate] showed an IC50 [1, 15] of 27 ± 6 nM.
`CCOC(=O)c1ccc2c(=O)cc(-c3ccccc3)[nH]c2c1` [RJ-LC-15-18, Ethyl 4-oxo-2-phenyl-1,4-dihydroquinoline-7-carboxylate] showed an IC50 [1, 15] of 97 ± 3 nM.
In the case of `CC(C)OC(=O)c1ccc2[nH]c(-c3cccc(F)c3)cc(=O)c2c1` [RJ-LC-15-23, Isopropyl 2-(3-fluorophenyl)-4-oxo-1,4-dihydroquinoline-6-carboxylate], the IC50 [1, 14] is reported as 6 ± 2.16 nM, the IC50 [1, 15] is reported as 6 ± 2 nM and the IC50 [11] is reported as 10 ± 0.5 nM. For the same compound, the IC50 [12] was > 10000 nM.
In the case of `O=C(O)c1ccc2[nH]c(-c3ccccc3)cc(=O)c2c1` [RJ-LC-15-21, Sodium 4-oxo-2-phenyl-1,4-dihydroquinoline-6-carboxylate], the IC50 ([1]; Homo sapiens, NCI-H1975) is reported as > 10000 nM.
`O=C(OCCOCCOCCOCCO)c1ccc2[nH]c(-c3ccccc3)cc(=O)c2c1` [RJ-LC-15-3, 2-(2-(2-(2-hydroxyethoxy)ethoxy)ethoxy)ethyl 4-oxo-2-phenyl-1,4-dihydro quinoline-6-carboxylate] gave an IC50 [1, 15] of 3300 ± 990 nM.
With `CCOC(=O)c1cccc2[nH]c(-c3ccccc3)cc(=O)c12` [RJ-LC-15-17, Ethyl 4-oxo-2-phenyl-1,4-dihydroquinoline-5-carboxylate] the IC50 [1, 15] was > 10000 nM.
For `O=C(Oc1ccccc1)c1ccc2[nH]c(-c3cccc(F)c3)cc(=O)c2c1` [RJ-LC-15-24, Phenyl 2-(3-fluorophenyl)-4-oxo-1,4-dihydroquinoline-6-carboxylate], the IC50 [1, 15] was 300 ± 8 nM.
For `CCOC(=O)c1ccc2[nH]c(-c3cccc(O)c3)cc(=O)c2c1` [RJ-LC-15-11, Ethyl 2-(3-hydroxyphenyl)-4-oxo-1,4-dihydroquinoline-6-carboxylate], the IC50 [1, 16] was 1950 nM and the IC50 [1, 15] was 1950 ± 200 nM.
In the case of `O=C(O)c1ccc2[nH]c(-c3cccc(F)c3)cc(=O)c2c1` [RJ-LC-15-26, 2-(3-fluorophenyl)-4-oxo-1,4-dihydroquinoline-6-carboxylic Acid], the IC50 [1, 15] is reported as > 10000 nM.
In the case of `CCOC(=O)c1ccc2[nH]c(-c3cccc(OC)c3)cc(=O)c2c1` [RJ-LC-15-7, Ethyl 2-(3-methoxyphenyl)-4-oxo-1,4-dihydroquinoline-6-carboxylate], the IC50 [1, 14] is reported as 44 nM and the IC50 [1, 15] is reported as 44 ± 1 nM.
With `CCOC(=O)c1ccc2[nH]c(-c3ccc(F)cc3)cc(=O)c2c1` [RJ-LC-15-5, Ethyl 2-(4-fluorophenyl)-4-oxo-1,4-dihydroquinoline-6-carboxylate] the IC50 [1, 16] was 2100 nM and the IC50 [1, 15] was 2100 ± 210 nM.
`CCOC(=O)c1ccc2[nH]c(-c3ccc(Br)cc3)cc(=O)c2c1` [RJ-LC-15-6, Ethyl 2-(4-bromophenyl)-4-oxo-1,4-dihydroquinoline-6-carboxylate] showed an IC50 [1, 16] of 4500 nM and an IC50 [1, 15] of 4500 ± 900 nM.
With `CC(C)OC(=O)c1ccc2[nH]c(-c3ccccc3)cc(=O)c2c1` [RJ-LC-15-15, Isopropyl 4-oxo-2-phenyl-1,4-dihydroquinoline-6-carboxylate] the IC50 [1, 14] was 48 nM and the IC50 [1, 15] was 48 ± 5 nM.
In the case of `CCOC(=O)c1ccc2[nH]c(-c3cccc(F)c3)cc(=O)c2c1` [RJ-LC-15-20, Ethyl 2-(3-fluorophenyl)-4-oxo-1,4-dihydroquinoline-6-carboxylate Methanesulfonate], the IC50 ([1]; Table 8, cell line not given, values match H1975, Methanesulfonate, read-out: IC50) is reported as 42 ± 4 nM.
In the case of `CCOC(=O)c1ccc2[nH]c(-c3ccc(OC)cc3)cc(=O)c2c1` [RJ-LC-15-4, Ethyl 2-(4-methoxyphenyl)-4-oxo-1,4-dihydroquinoline-6-carboxylate], the IC50 [1, 16] is reported as 2200 nM and the IC50 [1, 15] is reported as 2200 ± 200 nM.
Compound `CCNC(=O)c1ccc2[nH]c(-c3cccc(F)c3)cc(=O)c2c1` [RJ-LC-15-27, N-ethyl-2-(3-fluorophenyl)-4-oxo-1,4-dihydroquinoline-6-carboxamide] has an IC50 [1, 15] of 5600 ± 390 nM.
Compound `CCOCc1ccc2[nH]c(-c3ccccc3)cc(=O)c2c1` [RJ-LC-15-16, 6-(ethoxymethyl)-2-phenylquinolin-4(1H)-one] has an IC50 [1, 14] of 810 nM and an IC50 [1, 15] of 810 ± 120 nM.
`C/C(=C\c1csc(C)n1)[C@@H]1C[C@@H]2O[C@]2(C)CCC[C@H](C)[C@H](O)[C@@H](C)C(=O)C(C)(C)[C@@H](O)CC(=O)N1` [Ixabepilone, ixabepilone] showed an IC50 [13] of 8 ± 0.37 nM, an IC50 [2] of 3 ± 0.06 nM and an IC50 [3] of 35 ± 0.71 nM. The “RF, resistance factor” value [3] was 4.3, the IC50 [4] was 193 ± 24.2 nM and the “RF, resistance factor” value [4] was 24. For the same compound, the “RF, resistance factor” value [5] was 50 and the IC50 [5] was 150 ± 6.59 nM.
`CCOC(=O)c1ccc2[nH]c(-c3ccccc3)cc(=O)c2c1` [RJ-LC-15-19, Ethyl 4-oxo-2-phenyl-1,4-dihydroquinoline-6-carboxylate Methane Sulfonate] showed an IC50 ([1]; Table 8, cell line not given, values match H1975, read-out: IC50) of 69 ± 4 nM.
For `O=C(O)c1ccc2[nH]c(-c3ccccc3)cc(=O)c2c1` [RJ-LC-15-1, 4-oxo-2-phenyl-1,4-dihydroquinoline-6-carboxylic Acid], the IC50 [1, 16] was > 5000 nM and the IC50 [1, 15] was > 5000 nM.
Work on `CCNC(=O)c1ccc2[nH]c(-c3ccccc3)cc(=O)c2c1` [RJ-LC-15-2, N-ethyl-4-oxo-2-phenyl-1,4-dihydroquinoline-6-carboxamide] yielded an IC50 [1, 16] of 3700 nM and an IC50 [1, 15] of 3700 ± 730 nM.
In the case of `CCOC(=O)c1ccc2[nH]c(-c3ccc(O)cc3)cc(=O)c2c1` [RJ-LC-15-10, Ethyl 2-(4-hydroxyphenyl)-4-oxo-1,4-dihydroquinoline-6-carboxylate], the IC50 [1, 14] is reported as 475 nM and the IC50 [1, 15] is reported as 475 ± 31 nM.
Compound `CCOC(=O)c1ccc2[nH]c(-c3cccc(C(F)(F)F)c3)cc(=O)c2c1` [RJ-LC-15-9, Ethyl 4-oxo-2-(3-(trifluoromethyl)phenyl)-1,4-dihydroquinoline Carboxylate] has an IC50 [1, 14] of 780 nM and an IC50 [1, 15] of 780 ± 12 nM.
